Measured values as given in patent US9549911B2, “Ginger metabolites and uses thereof” (North Carolina A&T State University, priority 2012, dated 2017).

Assays:
[1] = tested on: HT-29 cells; test: Western blot analysis of apoptosis markers and p53 (Part 5); type: cell-based, human; details: HT-29 (p53 mutant), 24 hours; M2, 6S 10, 20 or 40 μM; 8S, M2′, 10S, M2″ 20 μM
Procedure: (§1) Cell lysates were prepared in ice-cold RIPA lysis buffer [25 mM Tris-HCl (pH 7.6), 150 mM NaCl, 1% NP-40, 1% sodium deoxycholate, 0.1% SDS, Thermo Fisher Scientific] supplemented with a protease inhibitor cocktail (AEBSF, aprotinin, bestatin, E-64, leupeptin and pepstatin A in DMSO with EDTA, Thermo Fisher Scientific). Protein content was measured by a Pierce BCA Assay Kit (Thermo Fisher Scientific). Protein contents of cell lysates (30 μg protein/lane) were resolved by SDS-PAGE. Proteins were then electro-transferred onto PVDF membranes and blots were blocked for one hour at room temperature in 1×TBS with 1% Casein (Bio-Rad Laboratories, Berkeley, Calif.). Blots were then incubated overnight at 4° C. with the desired primary antibody diluted in TBS with 0.5% Tween-20. Blots were then washed with TBS-Tween 20 and probed for 1 hour with the appropriate secondary antibody (1:1000). Protein bands were visualized with chemiluminescence using West Femto maximum detection substrate (Thermo Fisher Scientific). To confirm equal protein loading in each lane, immunoblots were stripped and re-probed for β-actin. Protein fold-induction was calculated by normalizing the intensity of the band of interest to β-actin first, and then to DMSO control lanes.

[2] = tested on: HCT-116 cells; test: as above; type: cell-based, human; details: HCT-116 (p53 wild-type), 24 hours; M2, 6S 10, 20 or 40 μM; 8S, M2′, 10S, M2″ 20 μM
Procedure: as §1

[3] = tested on: human colon cancer cells HCT-116; test: MTT toxicity in colon cancer and normal colon cells (Part 5); type: cell-based; details: HCT-116, 24 hours
Procedure: (§2) Cell viability was determined by an MTT colorimetric assay. […] The reading reflected the number of viable cells and was expressed as a percentage of viable cells in the control. CCD-18Co cells were grown in EMEM. Both HCT-116 and HT-29 cells were cultured in McCoy's 5A medium. All of the above media were supplemented with 10% fetal bovine serum, 1% penicillin/streptomycin, and 1% glutamine, and the cells were kept in a 37° C. incubator with 95% humidity and 5% CO2.

[4] = tested on: human colon fibroblast cells CCD-18Co; test: as above; type: cell-based; details: normal colon cells CCD-18Co, 24 hours
Procedure: as §2

[5] = tested on: human colon cancer cells HT-29; test: as above; type: cell-based; details: HT-29 (p53 mutant), 24 hours
Procedure: as §2

[6] = Chemical inhibition of [6]-shogaol metabolism in liver microsomes; type: in vitro ADME, human; details: inhibitor 500 μM, 20 min pre-incubation, [6]-shogaol 50 μM, 30 min
Procedure: Inhibitors ABT (500 μM) and 18β-GA (500 μM) or DMSO controls were pre-incubated with microsomes in experimental incubation mixture at 37° C. for 20 minutes before initiating the reaction by the addition of [6]-shogaol (50 μM). Reactions were terminated 30 minutes after substrate addition and incubation in a 37° C. water bath by equal volume of ice-cold acetonitrile with 2% acetic acid. The mixture was vortexed and underwent centrifugation at 13,000 g for 10 minutes. Aliquots of supernatant were stored at −20° C. until analysis.

[7] = tested on: human colon cancer cells HCT-116; test: MTT growth inhibition by M14 and M15 (Part 3); type: cell-based; details: Homo sapiens; HCT-116, 24 hours, 0 to 80 μM; read-out: IC50 (cell viability, MTT)
Procedure: (§3) Cell growth inhibition was determined by a MTT colorimetric assay. […] The reading reflected the number of viable cells and was expressed as a percentage of viable cells in the control. Both HCT-116 and H-1299 cells were cultured in McCoy's 5A medium. All of the above media were supplemented with 10% fetal bovine serum, 1% penicillin/streptomycin, and 1% glutamine, and the cells were kept in a 37° C. incubator with 95% humidity and 5% CO2.

[8] = tested on: human lung cancer cells H-1299; test: MTT growth inhibition by M14 and M15 (Part 3); type: cell-based; details: Homo sapiens, NCI-H1299; H-1299, 24 hours, 0 to 80 μM; read-out: IC50 (cell viability, MTT)
Procedure: as §3

[9] = tested on: A549 lung cancer cells; details: 6S 30 mg/kg, M2 30 mg/kg, M14 10 mg/kg, oral gavage 5×/week, 7 weeks
Procedure: Nu/J nude mice were obtained from Jackson Laboratories (Bar Harbor, Me.). Animals were randomized into 4 groups. A549 cells (5×10^6 cells) were implanted in both flanks of 8-weeks old Nu/J mice. One week after implantation, animals were given 100 μl of the following treatments through oral gavage 5 times/week: DMSO 0.25 ml/kg (control; n=4); 6S 10 mg/kg (n=4); 6S 30 mg/kg (n=4) or M2 30 mg/kg (n=5). Compounds were diluted in a solution of 5% DMSO in corn oil. Animal body weight and tumor volume were recorded for the duration of the experiment. Tumor volume was calculated by measuring the length and width of the tumors using a digital caliper and using the formula (Length×Width^2)/2. One hour before sacrifice, mice were given one last treatment dose as well as one intra-peritoneal injection of BrdU (7.5 mg/kg in 100 μl PBS). After 7 weeks, tumor tissues were harvested and weighed. A portion of the tumors was snap frozen in liquid nitrogen and another portion was placed in a histology cassette and immersed in formalin solution.
[…] tissues were sent to Precision Histology Lab (Oklahoma City, Okla.) for embedding in paraffin blocks. Then paraffin blocks were processed into 3-4 μm sections that were then put on microscope slides. Sections were then deparaffinized by using a succession of 3 baths of xylene (5 minutes each), 2 baths of absolute ethanol (5 minutes each), 95% ethanol for 3 minutes, 70% ethanol for 3 minutes, and rinsed in PBS. Immunostaining with TUNEL (terminal deoxynucleotidyl transferase dUTP nick end labeling) and BrdU staining kits was performed following manufacturer's recommendation. For staining quantification, sequential high-power field pictures of tumors were taken (10 pictures per tumor) using an A1 Zeiss microscope (Oberkochen, Germany). Images were processed using the Image J software, which was used to count positive, brown-colored cells in each field. Average number per tumor was calculated by averaging the number obtained for each field, and the average number of positive cells per group was obtained by averaging the values of each tumor belonging to the experimental group.
8 week-old nude mice (Jackson Laboratory, Maine) were randomized into 5 groups based on treatment (DMSO: n=4; 6S 10 mg/kg: n=4 (“6S 10”); 6S 30 mg/kg: n=4 (“6S 30”); M2 30 mg/kg: n=5 (“M2 30”); M14 10 mg/kg: n=4 (“M14 10”)). Animals were implanted with 5×10^6 A549 lung cancer cells (adenocarcinomic human alveolar basal epithelial cells) on each flank. The mice had access to food and water ad libitum. One week post implantation, the animals started receiving their respecting treatments through oral gavage (100 μl in corn oil and 5% DMSO), 5×/week. After 7 weeks of treatment, the tumor tissues were harvested.

[10] = tested on: human colon cancer cells HCT-116; test: Cell Death Detection ELISA apoptosis induction (Part 3); type: cell-based; details: 24 hours
Procedure: (§4) Human colon cancer cells HCT-116 and human lung cancer cells H-1299 were plated in 96-well plates at a density of 5000 cells/well and allowed to attach overnight at 37° C. M14, M15, or [6]-shogaol in DMSO, or DMSO control, diluted in media, were added to cells and incubated for an additional 24 hours at 37° C. After 24 hours, media containing compound was removed and cells were lysed in their respective wells with reagents from a Cell Death Detection ELISA^PLUS kit from Roche Applied Science (Mannheim, Germany). Samples were harvested after cell lysates were spun down at 300 g for 10 minutes. To streptavidin coated microplates, 20 μL samples were added, and mixed with 80 μL Immunoreagent, which consisted of anti-histone-biotin, and anti-DNA-POD, and incubated with gentle shaking for 2 hours at room temperature. After incubation, Immunoreagent was removed and samples were washed 3 times with 250 μL incubation buffer. Substrate solution, ABTS, was added to each well and color was developed for 15 minutes before stopping the reaction with ABTS stop solution and reading absorbance on a microplate reader at 430 nm. Experiments were performed in triplicate and the average is given in comparison to DMSO control with standard deviation.

[11] = tested on: human lung cancer cells H-1299; test: as above; type: cell-based; details: 24 hours
Procedure: as §4

Structure (SMILES)	p53 expression (Western blot) [1]	p53 expression (Western blot) [2]	IC50 [3] [µM]	IC50 [4] [µM]	IC50 [5] [µM]	IC50 [7] [µM]	IC50 [8] [µM]	induction of apoptosis compared to DMSO control ([10]; HCT-116, 10 μM)	induction of apoptosis compared to DMSO control ([11]; H-1299, 10 μM)	further results
CCCCCCC/C=C/C(=O)CCc1ccc(O)c(OC)c1 [8S, [8]-shogaol, reference compound]	increase in p53 accumulation	increase in p53 accumulation	22.8	105	27.9	–	–	–	–	–
CCCCCCCCC/C=C/C(=O)CCc1ccc(O)c(OC)c1 [10S, [10]-shogaol, reference compound]	increase in p53 accumulation	increase in p53 accumulation	25.1	136	23.9	–	–	–	–	–
Nn1nnc2ccccc21 [ABT, 1-Aminobenzotriazole]	–	–	–	–	–	–	–	–	–	effect on oxidative metabolism of [6]-shogaol [6]: abrogated; effect on reductive metabolism of [6]-shogaol [6]: did not inhibit reductive metabolism
CCCCC/C=C/C(=O)/C=C/c1ccc(O)c(OC)c1 [M14, (1E, 4E)-1-(4′-hydroxy-3′-methoxyphenyl)-deca-1,4-dien-3-one]	–	–	–	–	–	3.22	3.04	about 6 fold	7-8 fold	tumor size versus control group [9]: Reduction in tumor size; induction of apoptosis compared to DMSO control ([10]; HCT-116, 1 μM): 2 fold; induction of apoptosis compared to DMSO control ([11]; H-1299, 1 μM): 1 fold
CCCCCCCC(=O)/C=C/c1ccc(O)c(OC)c1 [M15, (E)-1-(4′-hydroxy-3′-methoxyphenyl)-dec-1-en-3-one]	–	–	–	–	–	43	41.6	1 fold	~2 fold	–
